In PubChem BioAssay (NCI):
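Interpolation was linear, between the two tested concentrations surrounding the appropriate level; five concentrations were tested over 48 hours in 96-well plates. GI50: concentration for 50% inhibition of growth. The concentration for full growth arrest is given as TGI.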

How the values were obtained:
Assay in all cases: DTP human tumour cell line panel, 48 h
CCRF-CEM leukemia = test system: CCRF-CEM leukemia
UACC-257 melanoma = test system: UACC-257 melanoma
MDA-N = test system: MDA-N
SK-MEL-2 melanoma = test system: SK-MEL-2 melanoma
A498 renal = test system: A498 renal
HT29 colon = test system: HT29 colon
M14 melanoma = test system: M14 melanoma
K-562 leukemia = test system: K-562 leukemia
U251 CNS = test system: U251 CNS
HCT-116 colon = test system: HCT-116 colon

SMILES	TGI (CCRF-CEM leukemia)	TGI (UACC-257 melanoma)	TGI (MDA-N)	TGI (SK-MEL-2 melanoma)	TGI (A498 renal)	TGI (HT29 colon)	TGI (M14 melanoma)	TGI (K-562 leukemia)	TGI (U251 CNS)	TGI (HCT-116 colon)	GI50 (CCRF-CEM leukemia)	GI50 (UACC-257 melanoma)	GI50 (SK-MEL-2 melanoma)	GI50 (HCT-116 colon)	GI50 (A498 renal)	GI50 (HT29 colon)	GI50 (M14 melanoma)	GI50 (K-562 leukemia)	GI50 (U251 CNS)
CCOC(=O)c1csc(NC(=O)CCN2CCCCC2)n1	> 100 µM	> 100 µM	> 100 µM	> 100 µM	> 100 µM	> 100 µM	> 100 µM	> 100 µM	> 100 µM										
O=C(/C=C/c1ccc(Cl)cc1)Oc1ccc(/C=C2\CCCCC2=O)cc1	> 100 µM	> 100 µM	> 100 µM	> 100 µM	> 100 µM	> 100 µM	> 100 µM		> 100 µM	> 100 µM									
Cc1c(CCOC=O)c(=O)[nH]c2nncn12	> 100 µM	> 100 µM	> 100 µM		> 100 µM	> 100 µM	> 100 µM	> 100 µM	> 100 µM	> 100 µM									
O=C1C(/C=C/c2ccc(Cl)cc2)=NNC2N1N=C1NC(=O)C3(NN12)c1ccccc1-c1ccccc13 (stereo not drawn)	> 100 µM	> 100 µM		> 100 µM	> 100 µM	> 100 µM	> 100 µM	> 100 µM	> 100 µM	> 100 µM									
CC1(C)CC[C@]2(C)CC=C3[C@]4(C)CC[C@H]5C(C)(C)C(=O)CC[C@]5(C)[C@H]4CC[C@@]3(C)[C@H]2C1	> 100 µM	> 100 µM	> 100 µM	> 100 µM	> 100 µM	> 100 µM	> 100 µM		> 100 µM	> 100 µM									
COC(=O)C(CCCC1(c2ccccc2)OCCO1)C(C)=O (stereo not drawn)	> 100 µM	> 100 µM		> 100 µM	> 100 µM	> 100 µM	> 100 µM	> 100 µM	> 100 µM	> 100 µM									
CC1(C2(C)OC(=O)c3ccccc32)OC(=O)c2ccccc21 (stereo not drawn)		> 100 µM	> 100 µM	> 100 µM	> 100 µM	> 100 µM	> 100 µM		> 100 µM	> 100 µM									
COCC1CCCN1c1ccc(/C=C(/C#N)C(N)=S)cc1 (stereo not drawn)	20.6 µM	> 100 µM		> 100 µM	> 100 µM	> 100 µM	> 100 µM	> 100 µM	> 100 µM	> 100 µM	5.04 µM	> 100 µM	> 100 µM	> 100 µM	> 100 µM	> 100 µM	> 100 µM	30.2 µM	> 100 µM
Clc1ccc(Oc2ccc(N=Cc3ccc(Cl)cc3Cl)cc2Cl)cc1	44.8 µM	> 100 µM	33.7 µM	> 100 µM		> 100 µM	68 µM		89.3 µM	> 100 µM									
COC1=CC(=O)[C@H]2[C@H](C)C(c3ccccc3)[C@@]2(C)C1=O (stereo partly drawn)	> 100 µM			> 100 µM	> 100 µM	> 100 µM	> 100 µM	> 100 µM	> 100 µM										
CC(OC(=O)NCn1cc(-c2ccccc2)nn1)c1ccccc1 (stereo not drawn)	> 100 µM	> 100 µM		> 100 µM		> 100 µM	34.9 µM	75.5 µM	> 100 µM	> 100 µM									
